The source of these data is patent US7566708B2, “Substituted pyrazolo{3,4-D}pyrimidines as p38 map kinase inhibitors” (Roche Palo Alto LLC, priority 2005, dated 2009).

A word on the IC50: it is the point on the concentration scale where inhibition reaches its midpoint. By melting point is commonly meant the temperature, or range, at which the solid turns liquid.

In the first data set the target is T1, p38 MAP kinase (Homo sapiens, UniProt Q16539).
T1 construct: made in house; host or cells: E. coli (co-expressed with SEK-1 and MEKK to obtain the phosphorylated form)
T1 sequence (Q16539 whole entry): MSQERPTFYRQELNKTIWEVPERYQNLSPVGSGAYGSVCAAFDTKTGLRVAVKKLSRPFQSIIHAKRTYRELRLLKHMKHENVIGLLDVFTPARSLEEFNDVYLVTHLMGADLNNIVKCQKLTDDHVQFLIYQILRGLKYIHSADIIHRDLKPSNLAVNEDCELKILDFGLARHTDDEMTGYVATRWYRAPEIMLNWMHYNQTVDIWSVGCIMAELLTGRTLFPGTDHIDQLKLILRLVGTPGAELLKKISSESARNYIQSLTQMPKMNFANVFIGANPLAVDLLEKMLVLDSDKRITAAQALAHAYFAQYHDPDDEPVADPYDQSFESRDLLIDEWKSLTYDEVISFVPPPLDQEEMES
As to the kind of experiment: p38 (MAP) kinase in vitro assay. In kind it is biochemical. The conditions noted are these: transfer of γ-33P from ATP to Myelin Basic Protein by phosphorylated recombinant p38 MAP kinase. As for the experimental part: This example illustrates a p38 (MAP) kinase in vitro assay useful for evaluating the compounds of the invention.
The p38 MAP kinase inhibitory activity of compounds of this invention in vitro was determined by measuring the transfer of the γ-phosphate from γ-^33P-ATP by p-38 kinase to Myelin Basic Protein (MBP), using a minor modification of the method described in Ahn, et al., J. Biol. Chem. 266:4220-4227 (1991). […] The phosphorylated form of the recombinant p38 MAP kinase was co-expressed with SEK-1 and MEKK in E. Coli (see, Khokhlatchev, et al., J. Biol. Chem. 272:11057-11062 (1997)) and then purified by affinity chromatography using a Nickel column.
The phosphorylated p38 MAP kinase was diluted in kinase buffer (20 mM 3-(N-morpholino)propanesulfonic acid, pH 7.2, 25 mM β-glycerol phosphate, 5 mM ethylene glycol-bis(beta-aminoethyl ether)-N,N,N′,N′-tetraacetic acid, 1 mM sodium or tho-vanadate, 1 mM dithiothreitol, 40 mM magnesium chloride). Test compound dissolved in DMSO or only DMSO (control) was added and the samples were incubated for 10 min at 30° C. The kinase reaction was initiated by the addition of a substrate cocktail containing MBP and γ-^33P-ATP. […] The phosphorylated MBP was then separated from the residual γ-^33P-ATP using a phosphocellulose membrane (Millipore, Bedfrod, Mass.) and quantitated using a scintillation counter (Packard, Meriden, Conn.).
As to `CC(C)(O)CNc1nc(Oc2ccc(F)cc2F)cc2[nH]nc(-c3cc(F)ccc3F)c12` [Compound 45, 1-[6-(2,4-Difluoro-phenoxy)-3-(2,5-difluoro-phenyl)-1H-pyrazolo[4,3-c]pyridin-4-ylamino]-2-methyl-propan-2-ol], the IC50 is ~1 nM.

Tested on in a further data set: not given
Assay: not given
Conditions: not given
Regarding `Fc1ccc(Oc2ncc3c(-c4ccccc4Cl)n[nH]c3n2)c(F)c1` [Example 1, 3-(2-chlorophenyl)-6-(2,4-difluoro-phenoxy)-1H-pyrazolo[3,4-d]pyrimidine], the melting point lay within 173.4 to 176.4 °C.
The same measure, in the same setting: to `Fc1ccccc1Nc1ncc2c(-c3ccccc3Cl)n[nH]c2n1` [Example 2, [3-(2-chlorophenyl)-1H-pyrazolo[3,4-d]pyrimidin-6-yl]-(2-fluorophenyl)amine] belongs 230.2 to 232.4 °C; to `Fc1ccc(Sc2ncc3c(-c4ccccc4Cl)n[nH]c3n2)c(F)c1` [Example 3, 3-(2-chlorophenyl)-6-(2,4-difluorophenylsulfanyl)-1H-pyrazolo[3,4-d]pyrimidine], 177.6 to 183.2 °C; to `Fc1ccc(Oc2cnc3c(-c4ccccc4Cl)n[nH]c3n2)c(F)c1` [Example 5, 3-(2-chlorophenyl)-6-(2,4-difluorophenoxy)-1H-pyrazolo[3,4-b]pyrazine], 240.5 to 241.5 °C.
Same read-out and setting: to `COc1ccccc1-c1n[nH]c2cc(Oc3ccc(F)cc3F)cnc12` [Example 8, 6-(2,4-Difluoro-phenoxy)-3-(2-methoxy-phenyl)-1H-pyrazolo[4,3-b]pyridine] belongs 143.2 to 144.9 °C; to `Clc1ccccc1Oc1ncc2c(-c3cccs3)n[nH]c2n1` [Example 14, 6-(2-Chloro-phenoxy)-3-thiophen-2-yl-1H-pyrazolo[3,4-d]pyrimidine], 221.3 to 223.1 °C.
Still for that read-out and setting: to `C[C@H](O)CNc1nc(Oc2ccc(F)cc2F)nc2[nH]nc(-c3ccccc3Cl)c12` [Example 16, (S)-1-[3-(2-chlorophenyl)-6-(2,4-difluorophenoxy)-1H-pyrazolo[3,4-d]pyrimidin-4-ylamino]propan-2-ol] belongs 254.6 to 258.2 °C; to `OC[C@H](O)COc1nc(Oc2ccc(F)cc2F)nc2[nH]nc(-c3ccccc3Cl)c12` [Example 20, (S)-3-[3-(2-Chloro-phenyl)-6-(2,4-difluoro-phenoxy)-1H-pyrazolo[3,4-d]pyrimidin-4-yloxy]-propane-1,2-diol], 179.2 to 181.3 °C; to `C[C@H](O)CNc1nc(Oc2ccc(F)cc2F)cc2[nH]nc(-c3ccccc3Cl)c12` [Example 24, (S)-1-[3-(2-Chloro-phenyl)-6-(2,4-difluoro-phenoxy)-1H-pyrazolo[4,3-c]pyridin-4-ylamino]-propan-2-ol], 171.2 to 172 °C.
